Experimental findings from patent US20250361239A1, “PROTEIN DEGRADERS AND USES THEREOF” (ZHUHAI YUFAN BIOTECHNOLOGIES CO., LTD., priority 2022, published 2025) are described below.

Assay type in all cases: cell-based
In one test the target is T1, GSPT1 (Homo sapiens, UniProt P15170+Q96SW2).
T1 construct: host or cells: HEK293
Nature of the test: Degradation of GSPT1 by the compounds (HiBiT signal in GSPT1/HEK293 hibit cells). To be noted: 6 h incubation, Nano Glo HiBiT Lytic Detection. The protocol:
GSPT1/HEK293 hibit cell lines were constructed by Shanghai BioDuro Co., Ltd., HEK293 cell lines were purchased from ATCC (Cat #ATCC® CRL-1573™), DMEM media were purchased from ATCC (Cat #ATCC® 30-2002™), FBS was purchased from Gibco (Cat #10091148), Nano Glo HiBiT Lytic Detection System was purchased from Promega (Cat #N3040), and 96-well plates were purchased from coming (Cat #3610).
The degradation of GSPT1 by the compounds was determined by measuring the intensity of hibit signals in cells. Firstly, the cells were digested with pancreatin, and the digestion was then terminated with medium. The cells were centrifuged, and the supernatant was discarded. The centrifuged cells were resuspended in a fresh complete medium, and the cell density was adjusted to 2.5×10^4 cells/mL. The resuspended cells were inoculated into an opaque 96-well cell culture plate at 100 μL of cell suspension per well, and the cell culture plate was incubated in a cell incubator at 37° C. overnight. The next day, dilutions (20 μL) of compounds with different concentrations were added, and the plate was incubated in a cell incubator for 6 h. After 6 h, 60 μL of Nano Glo HiBiT Lytic Detection System reagent was added and the luminescence values were read on the instrument.
According to the corresponding degradation rate and concentration of each gradient concentration well, a gradient curve of degradation rate was fitted using XLFit software, and the DC50 values of compounds were calculated.
In general terms: The HiBiT peptide binds its large partner to form an active luciferase.

For another test, the system named is Hep3B cells. Put plainly: Hep3B cell killing experiment (CellTiter-Glo cell viability). The following applies: Homo sapiens, 48 h incubation, CTG luminescence. The protocol: Hep3B cell lines were purchased from ATCC (Cat #ATCC® HB-8064™), EMEM media were purchased from ATCC (Cat #ATCC® 30-2003™), FBS was purchased from Gibco (Cat #10091148), celltiter-glo luminescent cell viability assay was purchased from promega (Cat #G7572), and 96-well plates were purchased from coming (Cat #3610).
The effect of compounds on the growth of Hep3B cells was determined by measuring cell viability and growth rate. Firstly, the cells were digested with pancreatin, and the digestion was then terminated with medium. The cells were centrifuged, and the supernatant was discarded. The centrifuged cells were resuspended in a fresh complete medium, and the cell density was adjusted to 5×10^4 cells/mL. The resuspended cells were inoculated into two identical opaque 96-well cell culture plates at 100 μL of cell suspension per well, and the cell culture plates were incubated in a cell incubator at 37° C. overnight. The next day, dilutions (20 μL) of compounds with different concentrations were added. After one of the cell plates was cooled to room temperature, 60 μL of CTG reagent was added. The luminescence values were read on the instrument as G0. The other one was incubated in a cell incubator for 48 h. After 48 h, 60 μL of CTG reagent was added, and the luminescence values were read on the instrument as G3.
(§1) According to the corresponding proliferation rate and concentration of each gradient concentration well, a gradient curve of cell proliferation was fitted using XLFit software, and the GI50 values of compounds were calculated.
In general terms: Cellular ATP, detected with luciferase, serves as a proxy for viable cell number.

The subject of the next test is Toledo cells. Nature of the test: Toledo cell killing experiment (CellTiter-Glo cell viability). To be noted: Homo sapiens, 48 h incubation, CTG luminescence. The protocol:
Toledo cell lines were purchased from ATCC (Cat #ATCC® CRL-2631™), RPMI1640 media were purchased from ATCC (Cat #ATCC® 30-2001™), FBS was purchased from Gibco (Cat #10091148), celltiter-glo luminescent cell viability assay was purchased from promega (Cat #G7572), and 96-well plates were purchased from coming (Cat #3610).
(§2) The effect of compounds on the growth of Toledo cells was determined by measuring cell viability and growth rate. Firstly, cells in the logarithmic growth phase were collected and centrifuged, and the culture supernatant was discarded. The centrifuged cells were resuspended in a fresh complete medium, and the cell density was adjusted to 5×10^4 cells/mL. The resuspended cells were inoculated into two identical opaque 96-well cell culture plates at 100 μL of cell suspension per well, and the cell culture plates were incubated in a cell incubator at 37° C. for 4 h. After 4 h, dilutions (20 μL) of compounds with different concentrations were added. After one of the cell plates was cooled to room temperature, 60 μL of CTG reagent was added, and the luminescence values were read on the instrument as G0. The other one was incubated in a cell incubator for 48 h. After 48 h, 60 μL of CTG reagent was added, and the luminescence values were read on the instrument as G3.
as §1

A further test concerns HL60 cells. Nature of the test: HL60 cell killing experiment (CellTiter-Glo cell viability). The following applies: CTG luminescence. The protocol:
HL60 cell lines were purchased from ATCC (Cat #ATCC® CCL-240™), IMDM media were purchased from ATCC (Cat #ATCC® 30-2005™), FBS was purchased from Gibco (Cat #10091148), celltiter-glo luminescent cell viability assay was purchased from promega (Cat #G7572), and 96-well plates were purchased from corning (Cat #3610).
as §2, with “HL60” for “Toledo”, “viability.” for “viability and growth rate.”, “two” for “two identical”
as §1

A further test deals with Jurkat cells. Nature of the test: Jurkat cell killing experiment (CellTiter-Glo cell viability). To be noted: Homo sapiens, 48 h incubation, CTG luminescence. The protocol: Jurkat cell lines were purchased from ATCC (Cat #ATCC® TIB-152™), RPMI1640 media were purchased from ATCC (Cat #ATCC® 30-2001™), FBS was purchased from Gibco (Cat #10091148), celltiter-glo luminescent cell viability assay was purchased from promega (Cat #G7572), and 96-well plates were purchased from coming (Cat #3610).
as §2, with “Jurkat” for “Toledo”
as §1

A further test concerns NCI-H929 cells. Nature of the test: NCI-H929 cell killing experiment (CellTiter-Glo cell viability). The following applies: Homo sapiens, 48 h incubation, CTG luminescence. The protocol: NCI-H929 cell lines were purchased from ATCC (Cat #ATCC® CRL-9068™), RPMI1640 media were purchased from ATCC (Cat #ATCC® 30-2001™), FBS was purchased from Gibco (Cat #10091148), celltiter-glo luminescent cell viability assay was purchased from promega (Cat #G7572), and 96-well plates were purchased from coming (Cat #3610).
as §2, with “2. Method The effect” for “The effect”, “growth of NCI-H929 cells was” for “growth of Toledo cells was”
as §1

The mark [1] stands for this setting: Homo sapiens, HL-60, 48 h incubation.

T1 sequence (P15170 whole entry): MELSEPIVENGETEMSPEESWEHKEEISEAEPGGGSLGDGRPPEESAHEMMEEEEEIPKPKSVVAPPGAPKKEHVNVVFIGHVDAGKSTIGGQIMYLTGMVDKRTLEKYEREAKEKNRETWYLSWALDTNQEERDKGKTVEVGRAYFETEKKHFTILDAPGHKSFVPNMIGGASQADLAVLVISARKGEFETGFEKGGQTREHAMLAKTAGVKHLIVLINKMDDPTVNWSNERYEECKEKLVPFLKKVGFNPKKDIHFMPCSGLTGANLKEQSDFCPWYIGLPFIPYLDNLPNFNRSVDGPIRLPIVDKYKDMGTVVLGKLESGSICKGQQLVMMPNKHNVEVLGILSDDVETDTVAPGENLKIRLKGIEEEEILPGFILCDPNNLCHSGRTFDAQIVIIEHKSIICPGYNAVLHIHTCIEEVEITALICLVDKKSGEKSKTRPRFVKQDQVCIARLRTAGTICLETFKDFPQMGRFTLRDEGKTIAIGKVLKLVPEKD
T1 sequence (Q96SW2 whole entry): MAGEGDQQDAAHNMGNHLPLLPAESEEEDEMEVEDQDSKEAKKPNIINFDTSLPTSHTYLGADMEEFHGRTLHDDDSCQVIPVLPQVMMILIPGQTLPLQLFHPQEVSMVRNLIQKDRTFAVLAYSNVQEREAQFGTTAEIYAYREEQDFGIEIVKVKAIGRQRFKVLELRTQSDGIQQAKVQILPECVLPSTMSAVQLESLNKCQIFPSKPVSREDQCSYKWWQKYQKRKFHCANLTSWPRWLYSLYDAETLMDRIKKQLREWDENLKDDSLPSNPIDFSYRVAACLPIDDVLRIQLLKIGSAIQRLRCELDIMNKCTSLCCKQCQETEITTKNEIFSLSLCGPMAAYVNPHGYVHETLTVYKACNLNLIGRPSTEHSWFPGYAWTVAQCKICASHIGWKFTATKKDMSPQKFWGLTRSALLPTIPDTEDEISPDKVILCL
T1 sequence (Q16531 whole entry partner): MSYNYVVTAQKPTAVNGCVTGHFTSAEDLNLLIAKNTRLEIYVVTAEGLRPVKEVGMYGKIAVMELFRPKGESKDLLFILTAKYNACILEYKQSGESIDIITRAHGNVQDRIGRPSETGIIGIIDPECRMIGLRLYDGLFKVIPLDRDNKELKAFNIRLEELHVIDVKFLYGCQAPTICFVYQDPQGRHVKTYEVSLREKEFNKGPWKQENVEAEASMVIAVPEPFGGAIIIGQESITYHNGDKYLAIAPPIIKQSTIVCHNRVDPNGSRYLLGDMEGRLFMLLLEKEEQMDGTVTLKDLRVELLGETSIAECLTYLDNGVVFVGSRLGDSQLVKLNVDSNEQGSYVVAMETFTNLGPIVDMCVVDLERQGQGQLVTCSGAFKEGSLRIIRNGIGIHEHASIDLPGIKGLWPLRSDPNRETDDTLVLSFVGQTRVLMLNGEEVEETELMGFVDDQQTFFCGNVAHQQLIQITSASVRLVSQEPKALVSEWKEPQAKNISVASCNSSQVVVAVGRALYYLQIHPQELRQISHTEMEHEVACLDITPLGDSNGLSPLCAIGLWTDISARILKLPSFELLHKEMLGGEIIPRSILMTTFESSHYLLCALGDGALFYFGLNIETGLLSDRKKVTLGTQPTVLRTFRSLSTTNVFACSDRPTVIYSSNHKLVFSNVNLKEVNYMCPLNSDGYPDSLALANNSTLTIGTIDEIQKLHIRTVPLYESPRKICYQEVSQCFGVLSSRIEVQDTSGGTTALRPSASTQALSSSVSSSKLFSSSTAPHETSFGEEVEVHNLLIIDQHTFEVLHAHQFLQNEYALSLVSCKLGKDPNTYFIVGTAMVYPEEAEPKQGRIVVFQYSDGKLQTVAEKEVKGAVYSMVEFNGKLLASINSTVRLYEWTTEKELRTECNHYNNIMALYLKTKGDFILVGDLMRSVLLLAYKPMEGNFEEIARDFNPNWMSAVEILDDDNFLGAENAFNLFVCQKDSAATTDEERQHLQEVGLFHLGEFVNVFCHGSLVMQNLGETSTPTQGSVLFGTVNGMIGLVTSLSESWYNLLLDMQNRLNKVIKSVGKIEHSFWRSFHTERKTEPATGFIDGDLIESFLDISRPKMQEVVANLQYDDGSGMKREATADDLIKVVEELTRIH

As a reminder, the DC50 is the midpoint of the concentration-degradation curve. Read a high DC50 as degradation only at high concentration. For orientation: GI50 means the concentration at which growth is held to half of that of the control. Take `Cn1c(C2CCC(NC(=O)c3cc(CNc4cccc5c4C(=O)N(C4CCC(=O)NC4=O)C5=O)ccn3)CC2)nc2ccncc21` (centres unmarked) [Example 39]: the DC50 on GSPT1 was under 100 nM. The GI50 in the test with Hep3B cells was 0.99 nM; in the test with Toledo cells, 3.58 nM; with HL60 cells (48 h incubation) it was under 100 nM; in the test with Jurkat cells, 1.73 nM.
On to `COc1ccc2c(c1)nc([C@H]1CC[C@H](N(C)C(=O)c3cc(CNc4cccc5c4C(=O)N(C4CCC(=O)NC4=O)C5=O)ccn3)CC1)n2C` (some centres unmarked) [Example 105], for which the 50% growth inhibitory concentration (GI50) in the test with Jurkat cells was found to be 1.3 nM.
On GSPT1, `Cn1c(C2CCC(NC(=O)CCCCNc3cccc4c3C(=O)N(C3CCC(=O)NC3=O)C4=O)CC2)nc2c3c(C4CCOCC4)c[nH]c3ncc21` (centres unmarked) [Example 113] gave a DC50 of under 100 nM. The results for the 50% growth inhibitory concentration (GI50) with Toledo cells and in the test on HL60 cells (setting [1]) were 1.53 nM and under 100 nM, respectively.
`O=C1CCC(N2C(=O)c3cccc(NCc4cccc(C(=O)N[C@H]5CC[C@H](c6nc7cccnc7s6)CC5)c4)c3C2=O)C(=O)N1` (some centres unmarked) [Example 61] returned a DC50 at GSPT1 of under 100 nM. Further, the GI50 was 1.08 nM in the test with NCI-H929 cells, 1.48 nM with Hep3B cells, 5.31 nM in the test with Toledo cells and under 100 nM in the test on HL60 cells (setting [1]).
Turning to `Cn1c2cnccc2nc1[C@H]1CC[C@H](NC(=O)c2cc(CNc3cccc4c3C(=O)N(C3CCC(=O)NC3=O)C4=O)ccn2)CC1` (some centres unmarked) [Example 26], at GSPT1, the 50% degradation concentration (DC50) was under 100 nM. Besides, the GI50 in the test on Hep3B cells is 2.7 nM; with Toledo cells it was 11.7 nM; with HL60 cells (setting [1]), under 100 nM; in the test with Jurkat cells, 2.24 nM.
With `Cn1c(C2CCC(NC(=O)C3CC(CNc4cccc5c4C(=O)N(C4CCC(=O)NC4=O)C5=O)C3)CC2)nc2ccncc21` (centres unmarked) [Example 10], the 50% degradation concentration (DC50) at GSPT1 was under 100 nM. In addition, the concentration for 50% growth inhibition (GI50) was 19.6 nM with NCI-H929 cells, 6.91 nM with Hep3B cells and under 100 nM in the test with HL60 cells (setting [1]).
In turn, `O=C1CCC(N2C(=O)c3cccc(NCc4cccc(C(=O)NC5CCC(c6n[nH]c7ccccc67)CC5)c4)c3C2=O)C(=O)N1` (centres unmarked) [Example 15] displayed a DC50 at GSPT1 of under 100 nM. In addition, in the test on HL60 cells (48 h incubation), the GI50 is under 100 nM.
With `O=C1CCC(N2C(=O)c3cccc(NCc4cccc(C(=O)NC5CCC(c6nc7cccnc7n6C6CC6)CC5)c4)c3C2=O)C(=O)N1` (centres unmarked) [Example 82], the DC50 at GSPT1 is under 100 nM. Moreover, the GI50 in the test on HL60 cells (setting [1]) was under 100 nM.
The molecule `COc1ccc(CNc2cccc3c2C(=O)N(C2CCC(=O)NC2=O)C3=O)cc1C(=O)N[C@H]1CC[C@H](c2nc3cccnc3s2)CC1` (some centres unmarked) [Example 94] came in with a DC50 at GSPT1 of under 100 nM. Further, the concentration for 50% growth inhibition (GI50) is under 100 nM in the test with HL60 cells (setting [1]) and 2.51 nM with Jurkat cells.
Consider `O=C1CCC(N2C(=O)c3cccc(NCc4ccnc(C(=O)NC5CCC(c6nc7ccccc7[nH]6)CC5)c4)c3C2=O)C(=O)N1` (centres unmarked) [Example 19], for which, at GSPT1, the DC50 was under 100 nM. Moreover, in the test on HL60 cells (setting [1]), the concentration for 50% growth inhibition (GI50) is under 100 nM.
In turn, `O=C1CCC(N2C(=O)c3cccc(NCc4cccc(C(=O)NC5CCC(c6nc7ccccc7s6)CC5)c4)c3C2=O)C(=O)N1` (centres unmarked) [Example 49] showed a DC50 on GSPT1 of under 100 nM. The same molecule returned a concentration for 50% growth inhibition (GI50) in the test on HL60 cells (setting [1]) of under 100 nM.
At GSPT1, `O=C1CCC(N2C(=O)c3cccc(NCc4ccc(F)c(C(=O)N[C@H]5CC[C@H](c6nc7cccnc7s6)CC5)c4)c3C2=O)C(=O)N1` (some centres unmarked) [Example 80] displayed a DC50 of under 100 nM. This molecule showed a concentration for 50% growth inhibition (GI50) in the test with HL60 cells (setting [1]) of under 100 nM.
Take `O=C1CCC(N2C(=O)c3cccc(NCc4cccc(C(=O)NC5CCC(c6nc7cccnc7[nH]6)CC5)c4)c3C2=O)C(=O)N1` (centres unmarked) [Example 18]: the 50% degradation concentration (DC50) at GSPT1 was under 100 nM. This molecule also yielded a GI50 in the test with HL60 cells (setting [1]) of under 100 nM.
The molecule `Cn1cc(C2CCOCC2)c2c3nc(C4CCC(NC(=O)CCCCNc5cccc6c5C(=O)N(C5CCC(=O)NC5=O)C6=O)CC4)[nH]c3cnc21` (centres unmarked) [Example 112] registered a DC50 on GSPT1 of under 100 nM. The molecule further returned a 50% growth inhibitory concentration (GI50) in the test on HL60 cells (setting [1]) of under 100 nM.
`Cn1c(C2CCC(NC(=O)c3cccc(CNc4cccc5c4C(=O)N(C4CCC(=O)NC4=O)C5=O)c3)CC2)nc2ccccc21` (centres unmarked) [Example 33] gave a DC50 at GSPT1 of under 100 nM. In the test with HL60 cells (setting [1]), this molecule returned a GI50 of under 100 nM.
Molecule `O=C1CCC(N2C(=O)c3cccc(NCc4cccc(C(=O)NC5CCC(c6csc7ccncc67)CC5)c4)c3C2=O)C(=O)N1` (centres unmarked) [Example 56] yielded a half-maximal degradation concentration (DC50) at GSPT1 of under 100 nM. The same molecule showed a 50% growth inhibitory concentration (GI50) in the test on HL60 cells (setting [1]) of under 100 nM.
